Measured values taken from ChEMBL document CHEMBL4507259 (2021).

Assays:
[1] = target: Translocator protein (Rattus norvegicus) (UniProt P16257); experiment: BZD (peripheral) CEREP ligand profiling; settings: filed as antagonist; Compound concentration 10.0 uM
[2] = target: Histone acetyltransferase KAT5 (Homo sapiens) (UniProt Q92993); experiment: TIP60 (HAT) CEREP ligand profiling; settings: Compound concentration 10.0 uM
HCC2935 = experiment: HCC2935 cell line Proliferation assay; type: functional, Homo sapiens; settings: Compound concentration 10 uM; time 3 day
VCaP = experiment: VCaP cell line Proliferation assay; type: functional, Homo sapiens; settings: Compound concentration 10 uM; time 5 day
CWR22R = experiment: 22Rv1 cell line Proliferation assay; type: functional, Homo sapiens; settings: Compound concentration 10 uM; time 5 day
Hs 695T = experiment: Hs695T cell line Proliferation assay; type: functional, Homo sapiens; settings: Compound concentration 10 uM; time 5 day
Hs 294T = experiment: Hs294T cell line Proliferation assay; type: functional, Homo sapiens; settings: Compound concentration 10 uM; time 5 day
A-375 = experiment: A375 cell line Proliferation assay; type: functional, Homo sapiens; settings: Compound concentration 10 uM; time 5 day
NCI-H69 = experiment: H69 cell line Proliferation assay; type: functional, Homo sapiens; settings: Compound concentration 10 uM; time 4 day
NCI-H510A = experiment: H510A cell line Proliferation assay; type: functional, Homo sapiens; settings: Compound concentration 10 uM; time 4 day
NCI-H187 = experiment: H187 cell line Proliferation assay; type: functional, Homo sapiens; settings: Compound concentration 10 uM; time 4 day
NCI-H1930 = experiment: H1930 cell line Proliferation assay; type: functional, Homo sapiens; settings: Compound concentration 10 uM; time 4 day
NCI-H2081 = experiment: H2081 cell line Proliferation assay; type: functional, Homo sapiens; settings: Compound concentration 10 uM; time 4 day
HCC1806 = experiment: HCC1806 cell line Proliferation assay; type: functional, Homo sapiens; settings: Compound concentration 10 uM; time 5 day
MDA-MB-157 = experiment: MDA_MB_157 cell line Proliferation assay; type: functional, Homo sapiens; settings: Compound concentration 10 uM; time 5 day
HCC1143 = experiment: HCC1143 cell line Proliferation assay; type: functional, Homo sapiens; settings: Compound concentration 10 uM; time 5 day
HCC1937 = experiment: HCC1937 cell line Proliferation assay; type: functional, Homo sapiens; settings: Compound concentration 10 uM; time 5 day
CAL-120 = experiment: CAL_120 cell line Proliferation assay; type: functional, Homo sapiens; settings: Compound concentration 10 uM; time 5 day
HCC1187 = experiment: HCC1187 cell line Proliferation assay; type: functional, Homo sapiens; settings: Compound concentration 10 uM; time 5 day
JVM-2 = experiment: JVM-2 cell line Proliferation assay; type: functional, Homo sapiens; settings: Compound concentration 10 uM; time 3 day
Karpas-1106P = experiment: K1106 cell line Proliferation assay; type: functional, Homo sapiens; settings: Compound concentration 10 uM; time 3 day
Raji = experiment: Raji cell line Proliferation assay; type: functional, Homo sapiens; settings: Compound concentration 10 uM; time 3 day
Toledo = experiment: Toledo cell line Proliferation assay; type: functional, Homo sapiens; settings: Compound concentration 10 uM; time 3 day
OCI-Ly3 = experiment: OCI Ly3 cell line Proliferation assay; type: functional, Homo sapiens; settings: Compound concentration 10 uM; time 3 day
Mino = experiment: Mino cell line Proliferation assay; type: functional, Homo sapiens; settings: Compound concentration 10 uM; time 3 day
SU-DHL-16 = experiment: SuDHL16 cell line Proliferation assay; type: functional, Homo sapiens; settings: Compound concentration 10 uM; time 3 day
SU-DHL-6 = experiment: SuDHL6 cell line Proliferation assay; type: functional, Homo sapiens; settings: Compound concentration 10 uM; time 3 day
Pfeiffer = experiment: Pfeiffer cell line Proliferation assay; type: functional, Homo sapiens; settings: Compound concentration 10 uM; time 3 day
Rec1 = experiment: REC1 cell line Proliferation assay; type: functional, Homo sapiens; settings: Compound concentration 10 uM; time 3 day
THP-1 = experiment: THP-1 cell line Proliferation assay; type: functional, Homo sapiens; settings: Compound concentration 10 uM; time 3 day
HL-60 = experiment: HL-60 cell line Proliferation assay; type: functional, Homo sapiens; settings: Compound concentration 10 uM; time 3 day
U-937 = experiment: U937 cell line Proliferation assay; type: functional, Homo sapiens; settings: Compound concentration 10 uM; time 3 day
[3] = target: T1, 5-hydroxytryptamine receptor 3A (Homo sapiens) (UniProt P46098); settings: Compound concentration 10.0 uM
T1 sequence (whole entry): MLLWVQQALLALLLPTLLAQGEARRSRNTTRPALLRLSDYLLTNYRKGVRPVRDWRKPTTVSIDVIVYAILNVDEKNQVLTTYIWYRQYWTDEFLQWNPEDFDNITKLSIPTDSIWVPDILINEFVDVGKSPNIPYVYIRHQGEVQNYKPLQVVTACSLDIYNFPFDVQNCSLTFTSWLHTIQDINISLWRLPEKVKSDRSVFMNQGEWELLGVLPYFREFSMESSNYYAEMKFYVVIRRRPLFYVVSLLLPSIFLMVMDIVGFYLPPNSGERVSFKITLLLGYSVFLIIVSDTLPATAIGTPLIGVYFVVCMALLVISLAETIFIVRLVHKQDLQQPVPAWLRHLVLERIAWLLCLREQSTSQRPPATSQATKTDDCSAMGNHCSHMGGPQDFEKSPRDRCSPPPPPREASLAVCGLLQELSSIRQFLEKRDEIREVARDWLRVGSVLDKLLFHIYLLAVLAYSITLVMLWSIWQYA

[4] = target: Delta-type opioid receptor (Homo sapiens) (UniProt P41143); settings: Compound concentration 10.0 uM
Delta-type opioid receptor (Homo sapiens), sequence (P41143 whole entry): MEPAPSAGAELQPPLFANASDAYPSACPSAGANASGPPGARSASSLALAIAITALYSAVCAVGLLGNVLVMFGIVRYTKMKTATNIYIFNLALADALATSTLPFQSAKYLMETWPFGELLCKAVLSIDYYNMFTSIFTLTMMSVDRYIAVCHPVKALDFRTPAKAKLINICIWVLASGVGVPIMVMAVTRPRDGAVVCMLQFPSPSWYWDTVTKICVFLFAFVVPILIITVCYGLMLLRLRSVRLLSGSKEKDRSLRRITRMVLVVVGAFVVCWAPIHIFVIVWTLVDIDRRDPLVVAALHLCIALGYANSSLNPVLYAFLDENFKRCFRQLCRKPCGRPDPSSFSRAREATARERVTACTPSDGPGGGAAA

[5] = target: Neuropeptide Y receptor type 1 (Homo sapiens) (UniProt P25929); experiment: Y1 (h) CEREP ligand profiling; settings: filed as agonist, Compound concentration 10.0 uM
Neuropeptide Y receptor type 1 (Homo sapiens), sequence (P25929 whole entry): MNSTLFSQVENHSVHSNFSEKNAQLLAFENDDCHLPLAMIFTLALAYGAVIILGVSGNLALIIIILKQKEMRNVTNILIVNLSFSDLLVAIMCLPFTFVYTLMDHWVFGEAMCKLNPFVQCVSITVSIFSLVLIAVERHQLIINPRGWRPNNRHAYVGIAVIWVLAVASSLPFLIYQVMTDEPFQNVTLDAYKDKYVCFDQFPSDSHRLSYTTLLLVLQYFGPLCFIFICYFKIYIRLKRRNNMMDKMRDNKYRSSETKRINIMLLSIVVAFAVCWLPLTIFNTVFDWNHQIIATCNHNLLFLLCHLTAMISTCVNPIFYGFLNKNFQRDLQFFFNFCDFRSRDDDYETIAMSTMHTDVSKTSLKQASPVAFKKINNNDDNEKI

[6] = target: Cholecystokinin receptor type A (Homo sapiens) (UniProt P32238); experiment: CCK1 (CCKA) (h) CEREP ligand profiling; settings: filed as agonist, Compound concentration 10.0 uM
Cholecystokinin receptor type A (Homo sapiens), sequence (P32238 whole entry): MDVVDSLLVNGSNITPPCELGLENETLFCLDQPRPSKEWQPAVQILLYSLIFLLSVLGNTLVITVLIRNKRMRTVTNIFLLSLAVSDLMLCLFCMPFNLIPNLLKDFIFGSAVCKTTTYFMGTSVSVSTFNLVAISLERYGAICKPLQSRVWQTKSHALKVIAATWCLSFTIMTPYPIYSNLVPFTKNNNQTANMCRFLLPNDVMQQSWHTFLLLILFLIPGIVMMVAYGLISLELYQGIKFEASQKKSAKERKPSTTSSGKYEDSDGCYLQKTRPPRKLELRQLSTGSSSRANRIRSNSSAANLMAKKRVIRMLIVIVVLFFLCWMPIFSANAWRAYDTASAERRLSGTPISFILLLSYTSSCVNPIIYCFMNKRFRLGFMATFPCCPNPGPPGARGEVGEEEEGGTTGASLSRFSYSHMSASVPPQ

[7] = target: Calcitonin-gene-related peptide receptor, CALCRL/RAMP1 (Homo sapiens) (UniProt O60894+Q16602); experiment: Calcitonin Gene-Related Peptide CGRP1 CEREP ligand profiling; type: protein-complex assay; settings: Compound concentration 10.0 uM
[8] = target: Activin receptor type-1 (Homo sapiens) (UniProt Q04771); settings: Compound concentration 1000.0 nM
[9] = target: Activin receptor type-2A (Homo sapiens) (UniProt P27037); settings: Compound concentration 1000.0 nM
[10] = target: Receptor-type tyrosine-protein kinase FLT3 (Homo sapiens) (UniProt P36888); settings: Compound concentration 1000.0 nM
Receptor-type tyrosine-protein kinase FLT3 (Homo sapiens), sequence (P36888 whole entry): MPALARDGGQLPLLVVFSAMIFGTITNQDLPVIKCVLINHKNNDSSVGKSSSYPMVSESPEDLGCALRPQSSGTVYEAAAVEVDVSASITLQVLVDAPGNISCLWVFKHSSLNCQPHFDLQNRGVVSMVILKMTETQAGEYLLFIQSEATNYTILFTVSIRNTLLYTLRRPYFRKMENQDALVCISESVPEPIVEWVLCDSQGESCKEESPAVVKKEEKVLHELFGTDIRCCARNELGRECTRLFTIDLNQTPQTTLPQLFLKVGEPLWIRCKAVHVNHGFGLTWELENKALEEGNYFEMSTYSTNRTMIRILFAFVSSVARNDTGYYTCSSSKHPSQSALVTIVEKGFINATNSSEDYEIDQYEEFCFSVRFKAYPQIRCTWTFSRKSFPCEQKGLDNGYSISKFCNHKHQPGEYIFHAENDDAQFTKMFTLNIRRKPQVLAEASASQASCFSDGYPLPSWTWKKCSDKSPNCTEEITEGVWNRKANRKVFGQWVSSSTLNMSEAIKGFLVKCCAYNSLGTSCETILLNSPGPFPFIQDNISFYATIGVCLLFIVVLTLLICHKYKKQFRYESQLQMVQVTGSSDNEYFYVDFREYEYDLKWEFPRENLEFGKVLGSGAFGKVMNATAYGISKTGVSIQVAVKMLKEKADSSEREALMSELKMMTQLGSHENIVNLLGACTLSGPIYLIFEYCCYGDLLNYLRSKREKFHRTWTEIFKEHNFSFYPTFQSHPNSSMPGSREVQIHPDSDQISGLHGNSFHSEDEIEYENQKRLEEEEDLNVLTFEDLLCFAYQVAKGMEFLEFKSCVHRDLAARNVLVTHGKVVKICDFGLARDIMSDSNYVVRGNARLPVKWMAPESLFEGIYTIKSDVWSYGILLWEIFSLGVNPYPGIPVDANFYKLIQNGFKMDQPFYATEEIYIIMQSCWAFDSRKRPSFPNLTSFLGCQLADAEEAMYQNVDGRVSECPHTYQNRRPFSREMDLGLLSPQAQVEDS

[11] = target: Homeodomain-interacting protein kinase 1 (Homo sapiens) (UniProt Q86Z02); settings: Compound concentration 1000.0 nM
[12] = target: Dual specificity mitogen-activated protein kinase kinase 1 (Homo sapiens) (UniProt Q02750); settings: Compound concentration 1000.0 nM
Dual specificity mitogen-activated protein kinase kinase 1 (Homo sapiens), sequence (Q02750 whole entry): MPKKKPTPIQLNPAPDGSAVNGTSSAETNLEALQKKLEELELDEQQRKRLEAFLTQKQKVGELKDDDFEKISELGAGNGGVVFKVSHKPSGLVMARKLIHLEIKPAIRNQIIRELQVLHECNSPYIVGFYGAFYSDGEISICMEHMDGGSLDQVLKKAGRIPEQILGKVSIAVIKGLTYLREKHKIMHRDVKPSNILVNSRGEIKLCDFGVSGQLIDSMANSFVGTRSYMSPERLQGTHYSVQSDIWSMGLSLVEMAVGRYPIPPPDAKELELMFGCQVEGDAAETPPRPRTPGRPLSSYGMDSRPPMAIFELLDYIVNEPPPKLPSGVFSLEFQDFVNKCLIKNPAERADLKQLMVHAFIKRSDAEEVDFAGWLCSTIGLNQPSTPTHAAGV

[13] = target: Cyclin-dependent kinase 15 (Homo sapiens) (UniProt Q96Q40); settings: Compound concentration 1000.0 nM
Cyclin-dependent kinase 15 (Homo sapiens), sequence (Q96Q40 whole entry): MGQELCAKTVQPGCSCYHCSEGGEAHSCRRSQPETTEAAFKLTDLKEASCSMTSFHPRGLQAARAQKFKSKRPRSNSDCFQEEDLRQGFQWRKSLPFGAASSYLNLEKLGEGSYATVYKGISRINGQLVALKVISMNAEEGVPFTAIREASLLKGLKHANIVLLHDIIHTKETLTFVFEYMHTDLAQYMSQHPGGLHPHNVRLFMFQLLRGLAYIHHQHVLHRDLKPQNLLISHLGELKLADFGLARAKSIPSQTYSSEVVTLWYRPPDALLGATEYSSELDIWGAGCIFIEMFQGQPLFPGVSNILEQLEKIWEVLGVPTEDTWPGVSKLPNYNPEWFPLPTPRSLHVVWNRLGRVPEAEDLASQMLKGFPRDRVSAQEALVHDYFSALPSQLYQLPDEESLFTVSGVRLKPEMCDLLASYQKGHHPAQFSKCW

[14] = target: Protein kinase C iota type (Homo sapiens) (UniProt P41743); settings: Compound concentration 1000.0 nM
Protein kinase C iota type (Homo sapiens), sequence (P41743 whole entry): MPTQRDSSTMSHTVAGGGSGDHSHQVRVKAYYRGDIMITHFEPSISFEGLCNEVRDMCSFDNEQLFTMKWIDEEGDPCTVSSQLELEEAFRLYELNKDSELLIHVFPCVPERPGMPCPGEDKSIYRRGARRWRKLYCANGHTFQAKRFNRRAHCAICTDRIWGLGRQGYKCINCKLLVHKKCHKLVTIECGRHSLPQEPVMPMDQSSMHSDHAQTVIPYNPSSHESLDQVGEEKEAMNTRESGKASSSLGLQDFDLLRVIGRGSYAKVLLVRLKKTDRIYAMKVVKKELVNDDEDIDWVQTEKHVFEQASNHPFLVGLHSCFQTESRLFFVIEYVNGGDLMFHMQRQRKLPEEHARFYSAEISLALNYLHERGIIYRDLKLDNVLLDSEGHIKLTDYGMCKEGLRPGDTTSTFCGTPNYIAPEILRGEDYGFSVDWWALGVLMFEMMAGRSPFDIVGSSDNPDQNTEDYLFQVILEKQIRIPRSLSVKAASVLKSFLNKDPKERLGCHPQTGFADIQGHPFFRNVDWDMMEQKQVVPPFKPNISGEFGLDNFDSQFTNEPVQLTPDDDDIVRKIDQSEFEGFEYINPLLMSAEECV

[15] = target: T2, Alpha-1A adrenergic receptor (Homo sapiens) (UniProt P35348); settings: Compound concentration 10.0 uM
T2 sequence (whole entry): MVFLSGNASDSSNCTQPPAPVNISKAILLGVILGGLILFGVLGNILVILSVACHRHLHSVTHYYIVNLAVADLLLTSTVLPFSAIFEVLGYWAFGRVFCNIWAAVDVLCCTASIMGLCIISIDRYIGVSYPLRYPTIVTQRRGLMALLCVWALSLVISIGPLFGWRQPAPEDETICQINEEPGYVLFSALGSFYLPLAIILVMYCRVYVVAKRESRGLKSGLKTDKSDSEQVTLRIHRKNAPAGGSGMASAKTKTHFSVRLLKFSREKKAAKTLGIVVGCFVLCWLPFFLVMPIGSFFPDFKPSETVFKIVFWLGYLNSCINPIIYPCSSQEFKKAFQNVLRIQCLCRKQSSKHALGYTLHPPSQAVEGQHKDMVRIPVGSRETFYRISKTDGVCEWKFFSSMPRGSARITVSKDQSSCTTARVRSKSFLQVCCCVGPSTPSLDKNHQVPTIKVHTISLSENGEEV

[16] = target: Beta-2 adrenergic receptor (Homo sapiens) (UniProt P07550); experiment: beta 2 (h) CEREP ligand profiling; settings: filed as agonist, Compound concentration 10.0 uM
Beta-2 adrenergic receptor (Homo sapiens), sequence (P07550 whole entry, looked up): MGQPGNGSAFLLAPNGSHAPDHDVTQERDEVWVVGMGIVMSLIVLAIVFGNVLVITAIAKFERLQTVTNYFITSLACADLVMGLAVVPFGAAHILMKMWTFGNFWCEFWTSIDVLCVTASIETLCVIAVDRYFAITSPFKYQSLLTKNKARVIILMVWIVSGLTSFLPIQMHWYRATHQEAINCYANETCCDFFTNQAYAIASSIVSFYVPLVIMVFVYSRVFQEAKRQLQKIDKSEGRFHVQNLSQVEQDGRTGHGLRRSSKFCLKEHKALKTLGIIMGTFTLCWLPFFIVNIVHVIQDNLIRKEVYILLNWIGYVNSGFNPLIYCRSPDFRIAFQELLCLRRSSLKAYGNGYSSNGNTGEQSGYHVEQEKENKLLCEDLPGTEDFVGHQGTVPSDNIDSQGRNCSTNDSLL

Histone acetyltransferase KAT5 (Homo sapiens), sequence (Q92993 whole entry, looked up): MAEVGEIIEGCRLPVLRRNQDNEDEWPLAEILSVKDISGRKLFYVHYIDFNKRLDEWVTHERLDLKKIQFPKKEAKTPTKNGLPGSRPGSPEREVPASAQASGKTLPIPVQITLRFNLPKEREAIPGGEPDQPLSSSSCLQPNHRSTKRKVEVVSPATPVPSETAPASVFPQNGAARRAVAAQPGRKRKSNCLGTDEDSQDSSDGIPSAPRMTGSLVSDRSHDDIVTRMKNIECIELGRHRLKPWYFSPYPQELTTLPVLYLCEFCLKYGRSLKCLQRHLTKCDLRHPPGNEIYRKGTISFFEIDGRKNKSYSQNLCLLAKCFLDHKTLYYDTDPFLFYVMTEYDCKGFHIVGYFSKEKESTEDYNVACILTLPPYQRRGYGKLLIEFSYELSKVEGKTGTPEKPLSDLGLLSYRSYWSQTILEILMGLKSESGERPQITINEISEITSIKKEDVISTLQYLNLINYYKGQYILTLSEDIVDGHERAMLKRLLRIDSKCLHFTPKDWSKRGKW
Translocator protein (Rattus norvegicus), sequence (P16257 whole entry, looked up): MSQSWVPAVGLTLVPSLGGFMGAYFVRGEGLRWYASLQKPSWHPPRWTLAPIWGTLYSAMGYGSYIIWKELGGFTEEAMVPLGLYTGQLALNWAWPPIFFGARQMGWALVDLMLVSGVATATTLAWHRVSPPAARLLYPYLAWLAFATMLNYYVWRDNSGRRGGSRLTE

Compound: CNC(=O)Nc1ccc2c(c1)CC[C@@]21OC(=O)N(CC(=O)N(Cc2ccc(F)cc2)[C@@H](C)C(F)(F)F)C1=O [A-485]
- inhibition [1]: 72%
- inhibition [2]: -1.9%
- Cell Proliferation EC50 (HCC2935): >10 µM
- Cell Proliferation EC50 (VCaP): 0.04 µM
- Cell Proliferation EC50 (CWR22R): 0.32 µM
- Cell Proliferation EC50 (Hs 695T): 3.571 µM
- Cell Proliferation EC50 (Hs 294T): 9 µM
- Cell Proliferation EC50 (A-375): >10 µM
- Cell Proliferation EC50 (NCI-H69): >10 µM
- Cell Proliferation EC50 (NCI-H510A): >10 µM
- Cell Proliferation EC50 (NCI-H187): >10 µM
- Cell Proliferation EC50 (NCI-H1930): >10 µM
- Cell Proliferation EC50 (NCI-H2081): >10 µM
- Cell Proliferation EC50 (HCC1806): 2.9512 µM
- Cell Proliferation EC50 (MDA-MB-157): 4.592 µM
- Cell Proliferation EC50 (HCC1143): >10 µM
- Cell Proliferation EC50 (HCC1937): >10 µM
- Cell Proliferation EC50 (CAL-120): >10 µM
- Cell Proliferation EC50 (HCC1187): >10 µM
- Cell Proliferation EC50 (JVM-2): >10 µM
- Cell Proliferation EC50 (Karpas-1106P): 0.4051 µM
- Cell Proliferation EC50 (Raji): 0.4631 µM
- Cell Proliferation EC50 (Toledo): 0.4875 µM
- Cell Proliferation EC50 (OCI-Ly3): 0.4892 µM
- Cell Proliferation EC50 (Mino): 0.5322 µM
- Cell Proliferation EC50 (SU-DHL-16): 0.7304 µM
- Cell Proliferation EC50 (SU-DHL-6): 0.7457 µM
- Cell Proliferation EC50 (Pfeiffer): 0.8586 µM
- Cell Proliferation EC50 (Rec1): >10 µM
- Cell Proliferation EC50 (THP-1): 3.51 µM
- Cell Proliferation EC50 (HL-60): >10 µM
- Cell Proliferation EC50 (U-937): >10 µM
- inhibition [3]: -8.97%
- inhibition [4]: -2.53%

Compound: CNC(=O)Nc1ccc2c(c1)[C@@]1(CC2)OC(=O)N(CC(=O)N(Cc2ccc(F)cc2)[C@@H](C)C(F)(F)F)C1=O [A-486]
- inhibition [5]: -10%
- inhibition [6]: 1%
- inhibition [7]: -10%
- residual activity [8]: 89%
- residual activity [9]: 100%
- residual activity [10]: 92%
- residual activity [11]: 78%
- residual activity [12]: 98%
- residual activity [13]: 100%
- residual activity [14]: 91%
- inhibition [15]: 0.04%
- inhibition [16]: 1%
